Reference: patent publication US20250034170A1, “SMALL MOLECULE MODULATORS OF GLUCOCEREBROSIDASE ACTIVITY AND USES THEREOF” (Vanqua Bio, Inc., priority 2021, published 2025)

biological target: T1, GCase (Homo sapiens, UniProt P04062); test: activation of GCase in a live cell PFB assay in HELA cells; format: cell-based; settings: activation of GCase, EC50 ranges
T1 construct: endogenous in cells; host or cells: HeLa cells
T1 sequence (P04062 40-536): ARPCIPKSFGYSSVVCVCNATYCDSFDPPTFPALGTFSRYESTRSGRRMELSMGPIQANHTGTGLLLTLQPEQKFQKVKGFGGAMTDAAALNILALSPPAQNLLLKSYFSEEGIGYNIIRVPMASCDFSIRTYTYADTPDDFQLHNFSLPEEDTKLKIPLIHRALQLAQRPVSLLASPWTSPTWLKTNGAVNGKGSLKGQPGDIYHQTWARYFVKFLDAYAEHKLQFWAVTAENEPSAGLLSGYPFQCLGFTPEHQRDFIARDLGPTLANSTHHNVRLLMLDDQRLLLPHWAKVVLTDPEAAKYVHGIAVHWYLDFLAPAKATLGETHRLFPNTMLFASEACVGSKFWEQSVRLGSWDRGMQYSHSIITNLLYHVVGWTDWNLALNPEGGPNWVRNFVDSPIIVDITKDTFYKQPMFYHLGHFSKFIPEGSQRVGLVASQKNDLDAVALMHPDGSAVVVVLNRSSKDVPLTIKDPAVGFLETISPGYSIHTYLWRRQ
Method: Exemplary compounds were evaluated for activation of GCase in a live cell PFB assay in HELA cells (essentially as described in Ysselstein et al., “LRRK2 kinase activity regulates lysosomal glucocerebrosidase in neurons derived from Parkinson's disease patients” Nature Communications (2019) 10:5570). […] EC50 ranges: A: <10 μM; B: >10-50 μM; C: >50-100 μM; D: >100 μM.

Row | EC50 | SMILES
1 | 10 to 50 µM | O=C1CC2(CCN(c3cccc(C(F)(F)F)n3)CC2)CN1c1cnc2cnn(CC(F)F)c2n1 [Compound 100, 2-[1-(2,2-difluoroethyl)-1H-pyrazolo[3,4-b]pyrazin-6-yl]-8-[6-(trifluoromethyl)pyridin-2-yl]-2,8-diazaspiro[4.5]decan-3-one]
2 | 10 to 50 µM | O=C1CC2(CCN(c3cnc4cnn(CC(F)F)c4n3)CC2)CN1c1cccc(C(F)(F)F)n1 [Compound 101, 8-[1-(2,2-difluoroethyl)-1H-pyrazolo[3,4-b]pyrazin-6-yl]-2-[6-(trifluoromethyl)pyridin-2-yl]-2,8-diazaspiro[4.5]decan-3-one]
3 | 10 to 50 µM | O=C1N(c2cccc(C(F)(F)F)n2)CCC12CCN(c1cnc3cnn(CC(F)F)c3n1)CC2 [Compound 102, 8-[1-(2,2-difluoroethyl)-1H-pyrazolo[3,4-b]pyrazin-6-yl]-2-[6-(trifluoromethyl)pyridin-2-yl]-2,8-diazaspiro[4.5]decan-1-one]
4 | 10 to 50 µM | FC(F)(F)c1cc(N2CCCC3(C2)CN(c2cnc4cn(Cc5ccccc5)nc4n2)C3)ccn1 [Compound 103, 2-{2-benzyl-2H-pyrazolo[3,4-b]pyrazin-6-yl}-6-[2-(trifluoromethyl)pyridin-4-yl]-2,6-diazaspiro[3.5]nonane]
5 | 10 to 50 µM | FC(F)(F)c1cc(N2CCCC3(C2)CN(c2cnc4cnn(Cc5ccccc5)c4n2)C3)ccn1 [Compound 104, 2-{1-benzyl-1H-pyrazolo[3,4-b]pyrazin-6-yl}-6-[2-(trifluoromethyl)pyridin-4-yl]-2,6-diazaspiro[3.5]nonane]
6 | 10 to 50 µM | Cn1c(-c2ccccc2)c(C(=O)N2CCCC3(CC(Oc4cccnc4C(F)(F)F)C3)C2)c2nccnc21 (centres unmarked) [Compound 108, 6-{5-methyl-6-phenyl-5H-pyrrolo[2,3-b]pyrazine-7-carbonyl}-2-{[2-(trifluoromethyl)pyridin-3-yl]oxy}-6-azaspiro[3.5]nonane]
7 | 10 to 50 µM | FC(F)Cn1ncc2ncc(NC3CCC4(CC3)CN(c3cccnc3C(F)(F)F)C4)nc21 [Compound 109, N-[1-(2,2-difluoroethyl)-1H-pyrazolo[3,4-b]pyrazin-6-yl]-2-[2-(trifluoromethyl)pyridin-3-yl]-2-azaspiro[3.5]nonan-7-amine]
8 | 10 to 50 µM | O=C1CC2(CCN(c3ccc(C(F)(F)F)nc3)CC2)CN1c1cnc2cnn(CC(F)F)c2n1 [Compound 110, 2-[1-(2,2-difluoroethyl)-1H-pyrazolo[3,4-b]pyrazin-6-yl]-8-[6-(trifluoromethyl)pyridin-3-yl]-2,8-diazaspiro[4.5]decan-3-one]
9 | 10 to 50 µM | O=C1CC2(CCN(c3cncc(C(F)(F)F)c3)CC2)CN1c1cnc2cnn(CC(F)F)c2n1 [Compound 111, 2-[1-(2,2-difluoroethyl)-1H-pyrazolo[3,4-b]pyrazin-6-yl]-8-[5-(trifluoromethyl)pyridin-3-yl]-2,8-diazaspiro[4.5]decan-3-one]
10 | 10 to 50 µM | O=C1CC2(CCN(c3ccc(C(F)(F)F)cn3)CC2)CN1c1cnc2cnn(CC(F)F)c2n1 [Compound 112, 2-[1-(2,2-difluoroethyl)-1H-pyrazolo[3,4-b]pyrazin-6-yl]-8-[5-(trifluoromethyl)pyridin-2-yl]-2,8-diazaspiro[4.5]decan-3-one]
11 | > 100 µM | O=C1CC2(CCN(c3ncccc3C(F)(F)F)CC2)CN1c1cnc2cnn(CC(F)F)c2n1 [Compound 113, 2-[1-(2,2-difluoroethyl)-1H-pyrazolo[3,4-b]pyrazin-6-yl]-8-[3-(trifluoromethyl)pyridin-2-yl]-2,8-diazaspiro[4.5]decan-3-one]
12 | 10 to 50 µM | O=C1CCC2(CN(c3cnc4cnn(CC(F)F)c4n3)C2)CN1c1cccc(C(F)(F)F)n1 [Compound 114, 2-[1-(2,2-difluoroethyl)-1H-pyrazolo[3,4-b]pyrazin-6-yl]-6-[6-(trifluoromethyl)pyridin-2-yl]-2,6-diazaspiro[3.5]nonan-7-one]
13 | 10 to 50 µM | O=C1N(c2cccc(C(F)(F)F)n2)CCCC12CN(c1cnc3cnn(CC(F)F)c3n1)C2 [Compound 115, 2-[1-(2,2-difluoroethyl)-1H-pyrazolo[3,4-b]pyrazin-6-yl]-6-[6-(trifluoromethyl)pyridin-2-yl]-2,6-diazaspiro[3.5]nonan-5-one]
14 | 10 to 50 µM | COCCN1CCC2(CCN(c3cnc4cnn(CC(F)F)c4n3)CC2)C1=O [Compound 116, 8-[1-(2,2-difluoroethyl)-1H-pyrazolo[3,4-b]pyrazin-6-yl]-2-(2-methoxyethyl)-2,8-diazaspiro[4.5]decan-1-one]
15 | < 10 µM | FC(F)Cn1ncc2ncc(N3CC4(CCN(c5ccnc(C(F)(F)F)c5)CC4)C3)nc21 [Compound 117, 2-[1-(2,2-difluoroethyl)-1H-pyrazolo[3,4-b]pyrazin-6-yl]-7-[2-(trifluoromethyl)pyridin-4-yl]-2,7-diazaspiro[3.5]nonane]
16 | 10 to 50 µM | O=C1N(c2cnc3cnn(CC(F)F)c3n2)CCC12CCN(c1ccnc(C(F)(F)F)c1)CC2 [Compound 118, 2-[1-(2,2-difluoroethyl)-1H-pyrazolo[3,4-b]pyrazin-6-yl]-8-[2-(trifluoromethyl)pyridin-4-yl]-2,8-diazaspiro[4.5]decan-1-one]
17 | < 10 µM | O=C1N(c2cnc3cnn(CC(F)F)c3n2)CCC12CCN(c1ccc(C(F)(F)F)nc1)CC2 [Compound 119, 2-[1-(2,2-difluoroethyl)-1H-pyrazolo[3,4-b]pyrazin-6-yl]-8-[6-(trifluoromethyl)pyridin-3-yl]-2,8-diazaspiro[4.5]decan-1-one]
18 | < 10 µM | O=C1N(c2cnc3cnn(CC(F)F)c3n2)CCC12CCN(c1ncccc1C(F)(F)F)CC2 [Compound 120, 2-[1-(2,2-difluoroethyl)-1H-pyrazolo[3,4-b]pyrazin-6-yl]-8-[3-(trifluoromethyl)pyridin-2-yl]-2,8-diazaspiro[4.5]decan-1-one]
19 | < 10 µM | O=C1N(c2cnc3cnn(CC(F)F)c3n2)CCC12CCN(c1ccc(C(F)(F)F)cn1)CC2 [Compound 121, 2-[1-(2,2-difluoroethyl)-1H-pyrazolo[3,4-b]pyrazin-6-yl]-8-[5-(trifluoromethyl)pyridin-2-yl]-2,8-diazaspiro[4.5]decan-1-one]
20 | < 10 µM | O=C1N(c2cnc3cnn(CC(F)F)c3n2)CCC12CCN(c1cncc(C(F)(F)F)c1)CC2 [Compound 122, 2-[1-(2,2-difluoroethyl)-1H-pyrazolo[3,4-b]pyrazin-6-yl]-8-[5-(trifluoromethyl)pyridin-3-yl]-2,8-diazaspiro[4.5]decan-1-one]
21 | 10 to 50 µM | FC(F)Cn1ncc2ncc(N3CC4(CCN(c5ncccc5C(F)(F)F)CC4)C3)nc21 [Compound 123, 2-[1-(2,2-difluoroethyl)-1H-pyrazolo[3,4-b]pyrazin-6-yl]-7-[3-(trifluoromethyl)pyridin-2-yl]-2,7-diazaspiro[3.5]nonane]
22 | < 10 µM | FC(F)Cn1ncc2ncc(N3CC4(CCN(c5ccc(C(F)(F)F)cn5)CC4)C3)nc21 [Compound 124, 2-[1-(2,2-difluoroethyl)-1H-pyrazolo[3,4-b]pyrazin-6-yl]-7-[5-(trifluoromethyl)pyridin-2-yl]-2,7-diazaspiro[3.5]nonane]
23 | 10 to 50 µM | FC(F)Cn1ncc2ncc(N3CC4(CCN(c5cccc(C(F)(F)F)n5)CC4)C3)nc21 [Compound 125, 2-[1-(2,2-difluoroethyl)-1H-pyrazolo[3,4-b]pyrazin-6-yl]-7-[6-(trifluoromethyl)pyridin-2-yl]-2,7-diazaspiro[3.5]nonane]
